Among the test systems are COLO 205 colon; HCC-2998 colon; HL-60(TB) leukemia; SF-295 CNS; SK-OV-3 ovarian; UACC-257 melanoma; BT-549 breast; MCF7 breast; MDA-MB-231 breast; HS 578T breast.
Common to all, as to assay: NCI anticancer screen, dose series, 48 h

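Assay format: 96-well plates, 48-hour exposure. Abbreviation: GI50, concentration required for 50% inhibition of growth. Definition used: TGI = concentration required for complete inhibition of growth.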

Results on 16 compounds are retold here after PubChem BioAssay (NCI).

For `[Cl-].[O-]/N=C(\c1ccccc1)c1ccccn1.[O-]/N=C(\c1ccccc1)c1ccccn1.[O-]/N=C(\c1ccccc1)c1ccccn1.[Sm+3]`, the GI50 in the assay with COLO 205 colon was 31.3 µM; with HCC-2998 colon, 25.7 µM; in the assay with HL-60(TB) leukemia, 20.1 µM; in the assay on SF-295 CNS, 18.7 µM; in the assay on SK-OV-3 ovarian, 32.6 µM; with UACC-257 melanoma, 23.8 µM. Moreover, the TGI in the assay with COLO 205 colon was greater than 100 µM; in the assay with HCC-2998 colon, greater than 100 µM; in the assay with HL-60(TB) leukemia it was 62.1 µM; in the assay on SF-295 CNS it was 79.9 µM; in the assay on SK-OV-3 ovarian, greater than 100 µM; with UACC-257 melanoma it was 73.6 µM.
Regarding `CCOC(=O)C1N(S(=O)(=O)c2ccc(C)cc2)CCC12c1ccccc1N(C(C)=O)C2c1ccc(OC)c(OC)c1` (stereo not drawn), the TGI in the assay with COLO 205 colon, in the assay with HCC-2998 colon, in the assay with HL-60(TB) leukemia, in the assay with SF-295 CNS, with SK-OV-3 ovarian and in the assay with UACC-257 melanoma was greater than 100 µM throughout.
Regarding `Cc1ccc(SC(CCC(Sc2ccc(C)cc2)Sc2ccc(C)cc2)Sc2ccc(C)cc2)cc1`, the TGI in the assay on COLO 205 colon, in the assay with HL-60(TB) leukemia, in the assay on SF-295 CNS, with SK-OV-3 ovarian and in the assay with UACC-257 melanoma was greater than 100 µM throughout.
In the case of `O=C1c2ccccc2C(Br)(Br)c2ccccc21`, the TGI with COLO 205 colon is greater than 31.6 µM; in the assay on HCC-2998 colon, greater than 31.6 µM; in the assay with HL-60(TB) leukemia it was greater than 31.6 µM; in the assay on SF-295 CNS it was greater than 31.6 µM; in the assay on SK-OV-3 ovarian, greater than 31.6 µM; in the assay with UACC-257 melanoma, greater than 100 µM.
As for `COC(=O)N(C(=O)OC)C(C(=O)O)C(C)C` (stereo not drawn), the TGI in the assay on COLO 205 colon, with HCC-2998 colon, with HL-60(TB) leukemia, in the assay on SF-295 CNS and in the assay on UACC-257 melanoma was greater than 100 µM throughout.
Turning to `CC(=O)[CH-]C(C)=O.CC(=O)[CH-]C(C)=O.[CH2-]CCC.[CH2-]CCC.[Sn+4]`, the GI50 is 0.304 µM in the assay with COLO 205 colon; 0.347 µM in the assay with HL-60(TB) leukemia; 1.45 µM in the assay with SF-295 CNS; 1.69 µM in the assay with SK-OV-3 ovarian; 0.376 µM with UACC-257 melanoma. The TGI in the assay with COLO 205 colon came out at 1.05 µM; in the assay with HL-60(TB) leukemia, 2.73 µM; in the assay on SF-295 CNS, 2.8 µM; in the assay with SK-OV-3 ovarian, 3.09 µM; with UACC-257 melanoma, 1.68 µM.
For the compound `COc1ccc2c(CN3CCCCC3CO)cc3cc(OC)c(OC)cc3c2c1` (stereo not drawn), the TGI worked out at 10.3 µM in the assay with COLO 205 colon; 21 µM with HCC-2998 colon; 12.5 µM with HL-60(TB) leukemia; 13.6 µM in the assay with SF-295 CNS; 70.2 µM in the assay on SK-OV-3 ovarian; 13.7 µM in the assay with UACC-257 melanoma.
Turning to `CCCCCC[N+](C)(C)Cc1ccc(C[N+](C)(C)CCCCCC)cc1`, the TGI with HCC-2998 colon came to 27.9 µM; in the assay with SF-295 CNS, 10.5 µM; with SK-OV-3 ovarian, 33.4 µM; in the assay on UACC-257 melanoma it was 35.5 µM.
In the case of `CN(C)CC(C)(C)/C(=N\Nc1ccccc1)c1ccccc1`, the TGI was greater than 100 µM with COLO 205 colon; 50.6 µM with HL-60(TB) leukemia; 46.4 µM in the assay with SF-295 CNS; 73.3 µM in the assay on SK-OV-3 ovarian; greater than 100 µM in the assay on UACC-257 melanoma.
Take `CCCCCC(=O)C(C)C1=Nc2nnc(CCCCCCCc3nnc4n3C(=O)C(C(C)C(=O)CCCCC)=N4)n2C1=O` (stereo not drawn): the TGI with COLO 205 colon, in the assay on HCC-2998 colon, in the assay with HL-60(TB) leukemia, in the assay on SF-295 CNS, in the assay with SK-OV-3 ovarian and in the assay on UACC-257 melanoma was greater than 100 µM throughout.
For the compound `O=c1nc(/C=C/c2ccccc2Cl)cc2n1CCN2CCO`, the TGI in the assay with COLO 205 colon, in the assay on HL-60(TB) leukemia, in the assay with SF-295 CNS and in the assay on SK-OV-3 ovarian was greater than 100 µM throughout.
On to `COc1ccc(S(=O)(=O)Nc2ccccc2C(=O)O)cc1`, for which the TGI in the assay on COLO 205 colon, in the assay with HCC-2998 colon, in the assay on HL-60(TB) leukemia, in the assay on SF-295 CNS, in the assay with SK-OV-3 ovarian and in the assay on UACC-257 melanoma was greater than 100 µM throughout.
Take `COc1cc(NC(N)=NCCC(C)(C)Oc2ccc(C(F)(F)F)cc2)ncc1C#N`: the GI50 in the assay with BT-549 breast was 1.81 µM; in the assay on COLO 205 colon, 1.58 µM; in the assay with HCC-2998 colon it was 1.58 µM; in the assay with MCF7 breast, 1.61 µM; with MDA-MB-231 breast it was 1.75 µM; in the assay on SF-295 CNS, 1.57 µM. Moreover, the values for the GI50 in the assay with SK-OV-3 ovarian and in the assay with UACC-257 melanoma were 1.84 µM and 1.7 µM, respectively. The TGI with BT-549 breast amounted to 3.38 µM; in the assay on COLO 205 colon, 3.06 µM; in the assay with HCC-2998 colon, 3.01 µM; with MCF7 breast, 3.18 µM; with MDA-MB-231 breast it was 3.21 µM; in the assay on SF-295 CNS it was 2.99 µM. Also, the TGI in the assay with SK-OV-3 ovarian worked out at 3.26 µM; with UACC-257 melanoma, 3.11 µM.
In the case of `COc1ccc(Nc2nc3ccc(C(F)(F)F)cc3nc2-c2ccccc2)cc1OC`, the TGI in the assay on COLO 205 colon was 91.2 µM; in the assay on HCC-2998 colon it was 41.3 µM; with HL-60(TB) leukemia it was greater than 100 µM; in the assay on SF-295 CNS, 44.9 µM; with SK-OV-3 ovarian, greater than 100 µM; with UACC-257 melanoma it was greater than 100 µM.
In the case of `C[N-]c1nnnn1C.[Au+].c1ccc([PH+](c2ccccc2)c2ccccc2)cc1`, the GI50 in the assay on COLO 205 colon is 3.33 µM; with HCC-2998 colon, 4.06 µM; in the assay with HL-60(TB) leukemia it was 0.189 µM; in the assay with SF-295 CNS it was 3.47 µM; in the assay on SK-OV-3 ovarian, 13 µM; in the assay with UACC-257 melanoma it was 2.03 µM. The TGI was 8.81 µM with COLO 205 colon; 9.23 µM in the assay on HCC-2998 colon; 0.567 µM in the assay on HL-60(TB) leukemia; 12.2 µM in the assay with SF-295 CNS; 26.6 µM in the assay with SK-OV-3 ovarian; 6.51 µM in the assay on UACC-257 melanoma.
For `CC(C)CCC(=O)c1ccoc1`, the TGI in the assay on COLO 205 colon, in the assay with HCC-2998 colon, in the assay with HL-60(TB) leukemia, in the assay on HS 578T breast, in the assay on MCF7 breast and in the assay on MDA-MB-231 breast was greater than 100 µM throughout. The TGI with SF-295 CNS, in the assay on SK-OV-3 ovarian and in the assay on UACC-257 melanoma was greater than 100 µM in each case.
